In ChEMBL document CHEMBL1201862, “PubChem BioAssay data set” (2004):
Each block holds one compound with its values, some of them ahead of it. Active and inactive are the calls of the source.

Experiments:
[1] = biological target: T1, Calpain-2 catalytic subunit (Sus scrofa, UniProt P43367); assay: pig calpain II inhibitor potency, dose response, biochemical, fluorogenic peptide substrate (AID 1420); type: functional
T1 sequence (P43367 whole entry): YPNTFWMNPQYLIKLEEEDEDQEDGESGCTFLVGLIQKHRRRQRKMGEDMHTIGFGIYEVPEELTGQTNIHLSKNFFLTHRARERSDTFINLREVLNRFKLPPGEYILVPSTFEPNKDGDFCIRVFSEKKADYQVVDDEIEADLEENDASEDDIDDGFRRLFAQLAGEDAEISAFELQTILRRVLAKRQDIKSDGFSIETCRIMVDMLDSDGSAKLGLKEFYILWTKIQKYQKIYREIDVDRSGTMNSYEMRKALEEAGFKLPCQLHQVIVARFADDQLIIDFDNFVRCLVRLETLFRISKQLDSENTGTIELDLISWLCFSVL

[2] = biological target: T2, Short transient receptor potential channel 4 (Mus musculus, UniProt Q9QUQ5); assay: mouse TRPC4 channel activators, dose response, cell-based, HEK293 TRPC4/mu-opioid, Fluo-4 calcium (AID 434937); type: functional
T2 sequence (Q9QUQ5 whole entry): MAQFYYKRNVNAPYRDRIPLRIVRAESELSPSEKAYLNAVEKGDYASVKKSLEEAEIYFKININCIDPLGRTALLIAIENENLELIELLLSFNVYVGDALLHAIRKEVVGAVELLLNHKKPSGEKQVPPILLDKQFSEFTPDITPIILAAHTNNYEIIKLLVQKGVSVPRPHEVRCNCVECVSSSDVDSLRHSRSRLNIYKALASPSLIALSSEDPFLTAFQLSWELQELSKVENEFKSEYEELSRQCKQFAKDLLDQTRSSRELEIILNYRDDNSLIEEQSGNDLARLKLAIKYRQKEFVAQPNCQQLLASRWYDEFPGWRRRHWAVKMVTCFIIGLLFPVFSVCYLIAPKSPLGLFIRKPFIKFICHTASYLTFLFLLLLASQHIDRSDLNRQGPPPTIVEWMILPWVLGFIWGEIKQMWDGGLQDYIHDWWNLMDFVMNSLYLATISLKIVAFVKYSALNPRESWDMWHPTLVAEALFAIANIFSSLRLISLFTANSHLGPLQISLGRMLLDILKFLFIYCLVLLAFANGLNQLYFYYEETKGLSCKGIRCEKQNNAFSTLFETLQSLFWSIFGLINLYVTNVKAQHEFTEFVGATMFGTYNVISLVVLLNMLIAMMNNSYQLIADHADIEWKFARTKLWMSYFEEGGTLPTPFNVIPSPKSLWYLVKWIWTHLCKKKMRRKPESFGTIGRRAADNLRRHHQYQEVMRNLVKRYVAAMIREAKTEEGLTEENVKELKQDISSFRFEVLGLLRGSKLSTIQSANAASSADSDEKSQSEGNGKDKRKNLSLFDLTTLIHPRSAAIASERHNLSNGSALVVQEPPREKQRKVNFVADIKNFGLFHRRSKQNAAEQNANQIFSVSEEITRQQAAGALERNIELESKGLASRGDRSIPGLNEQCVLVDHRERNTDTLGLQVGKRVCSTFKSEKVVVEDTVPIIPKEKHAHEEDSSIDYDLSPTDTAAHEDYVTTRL

Melanocortin receptor 4 = Melanocortin receptor 4 (Homo sapiens, UniProt P32245); type: functional, cell-based;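 note: Cell-based assay with luminescence read-out, confirmatory dose-response testing for agonist activity of biased ligands at MC4R; human U2OS cells with tagged receptor and beta-arrestin; potency of agonists that increase receptor coupling to beta-arrestin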
Melanocortin receptor 4, sequence (P32245 whole entry): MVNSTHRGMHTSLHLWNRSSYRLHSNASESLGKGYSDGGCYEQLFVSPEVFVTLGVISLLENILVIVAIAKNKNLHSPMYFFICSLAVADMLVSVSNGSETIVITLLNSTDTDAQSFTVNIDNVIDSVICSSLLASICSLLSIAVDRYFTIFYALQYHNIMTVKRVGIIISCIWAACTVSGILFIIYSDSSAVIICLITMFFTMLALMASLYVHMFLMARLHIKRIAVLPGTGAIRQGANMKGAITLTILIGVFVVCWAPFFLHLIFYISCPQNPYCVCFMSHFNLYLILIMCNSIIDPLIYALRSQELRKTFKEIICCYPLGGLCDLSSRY

Cytochrome P450 2C9 = Cytochrome P450 2C9 (Homo sapiens, UniProt P11712)
Cytochrome P450 2C9, sequence (P11712 whole entry): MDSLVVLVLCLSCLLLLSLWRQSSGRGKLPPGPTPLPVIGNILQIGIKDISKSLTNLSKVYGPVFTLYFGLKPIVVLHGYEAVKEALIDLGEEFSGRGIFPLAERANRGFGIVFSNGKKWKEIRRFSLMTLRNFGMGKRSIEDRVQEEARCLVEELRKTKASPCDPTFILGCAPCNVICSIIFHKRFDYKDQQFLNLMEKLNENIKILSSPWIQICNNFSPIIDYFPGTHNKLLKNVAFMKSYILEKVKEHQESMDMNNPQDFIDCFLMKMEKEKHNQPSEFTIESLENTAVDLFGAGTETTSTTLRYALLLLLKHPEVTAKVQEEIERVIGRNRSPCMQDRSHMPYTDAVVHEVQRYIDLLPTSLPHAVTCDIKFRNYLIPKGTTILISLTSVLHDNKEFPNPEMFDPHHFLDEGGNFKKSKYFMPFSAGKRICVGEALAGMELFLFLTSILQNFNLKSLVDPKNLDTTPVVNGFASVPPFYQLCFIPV

Cytochrome P450 3A4 = Cytochrome P450 3A4 (Homo sapiens, UniProt P08684);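 note: CYP3A4 tested as one member of a cytochrome P450 panel screen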
Cytochrome P450 3A4, sequence (P08684 whole entry): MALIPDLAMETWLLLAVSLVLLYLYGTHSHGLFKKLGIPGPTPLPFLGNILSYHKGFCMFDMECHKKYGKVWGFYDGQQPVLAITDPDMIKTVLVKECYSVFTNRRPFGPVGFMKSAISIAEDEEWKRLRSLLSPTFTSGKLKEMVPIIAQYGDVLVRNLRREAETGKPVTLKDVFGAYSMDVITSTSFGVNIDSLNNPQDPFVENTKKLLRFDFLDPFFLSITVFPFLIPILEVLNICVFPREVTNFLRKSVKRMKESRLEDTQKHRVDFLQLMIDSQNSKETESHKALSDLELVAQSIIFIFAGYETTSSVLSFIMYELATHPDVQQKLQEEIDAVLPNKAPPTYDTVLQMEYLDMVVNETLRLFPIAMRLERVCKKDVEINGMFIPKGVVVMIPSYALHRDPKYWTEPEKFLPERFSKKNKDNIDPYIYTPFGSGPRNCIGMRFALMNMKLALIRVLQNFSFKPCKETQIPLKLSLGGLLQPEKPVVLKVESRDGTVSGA

Genome polyprotein = Genome polyprotein (dengue virus type 2, UniProt P29990); assay: Dengue-2 NS5 methyltransferase inhibitors, primary screen, biochemical, confirmation dose response (AID 588689); type: functional
Genome polyprotein, sequence (P29990 2492-3391 limits assumed): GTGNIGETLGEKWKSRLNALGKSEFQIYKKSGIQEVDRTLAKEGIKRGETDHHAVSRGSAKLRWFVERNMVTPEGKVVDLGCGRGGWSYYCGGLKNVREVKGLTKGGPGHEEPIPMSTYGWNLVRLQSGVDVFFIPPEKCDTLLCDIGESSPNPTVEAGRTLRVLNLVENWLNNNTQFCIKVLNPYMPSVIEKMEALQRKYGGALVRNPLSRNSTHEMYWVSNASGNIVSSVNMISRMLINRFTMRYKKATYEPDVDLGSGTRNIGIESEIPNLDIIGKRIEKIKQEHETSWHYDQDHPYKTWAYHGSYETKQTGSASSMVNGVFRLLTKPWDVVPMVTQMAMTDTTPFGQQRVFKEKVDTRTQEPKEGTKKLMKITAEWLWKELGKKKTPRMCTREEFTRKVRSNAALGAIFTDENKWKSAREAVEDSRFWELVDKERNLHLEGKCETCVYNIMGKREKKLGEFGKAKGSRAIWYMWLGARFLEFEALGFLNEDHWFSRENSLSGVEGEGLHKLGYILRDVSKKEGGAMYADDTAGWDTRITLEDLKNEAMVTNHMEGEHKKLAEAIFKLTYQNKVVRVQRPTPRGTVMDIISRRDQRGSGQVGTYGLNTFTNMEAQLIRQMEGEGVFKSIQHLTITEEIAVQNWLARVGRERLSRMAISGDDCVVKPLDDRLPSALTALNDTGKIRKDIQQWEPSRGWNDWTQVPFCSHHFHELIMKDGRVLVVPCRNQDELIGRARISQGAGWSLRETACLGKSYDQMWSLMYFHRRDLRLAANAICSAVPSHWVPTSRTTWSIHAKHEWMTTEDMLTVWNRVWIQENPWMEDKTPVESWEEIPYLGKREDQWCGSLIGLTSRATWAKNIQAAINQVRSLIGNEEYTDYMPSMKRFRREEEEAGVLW

[3] = biological target: T2, Short transient receptor potential channel 4; assay: mouse TRPC4 channel inhibitors, dose response, cell-based, HEK293 TRPC4/mu-opioid, Fluo-4 calcium (AID 434942); type: functional;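 note: potency of inhibitors blocking the TRPC4 calcium response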
[4] = biological target: T3, Rac GTPase-activating protein 1 (Homo sapiens, UniProt Q9H0H5); assay: MgcRacGAP GTPase-activating activity inhibitors, confirmation, biochemical, ADP Hunter fluorescence, primary and confirmatory (AID 624330); type: functional
T3 sequence (Q9H0H5 whole entry): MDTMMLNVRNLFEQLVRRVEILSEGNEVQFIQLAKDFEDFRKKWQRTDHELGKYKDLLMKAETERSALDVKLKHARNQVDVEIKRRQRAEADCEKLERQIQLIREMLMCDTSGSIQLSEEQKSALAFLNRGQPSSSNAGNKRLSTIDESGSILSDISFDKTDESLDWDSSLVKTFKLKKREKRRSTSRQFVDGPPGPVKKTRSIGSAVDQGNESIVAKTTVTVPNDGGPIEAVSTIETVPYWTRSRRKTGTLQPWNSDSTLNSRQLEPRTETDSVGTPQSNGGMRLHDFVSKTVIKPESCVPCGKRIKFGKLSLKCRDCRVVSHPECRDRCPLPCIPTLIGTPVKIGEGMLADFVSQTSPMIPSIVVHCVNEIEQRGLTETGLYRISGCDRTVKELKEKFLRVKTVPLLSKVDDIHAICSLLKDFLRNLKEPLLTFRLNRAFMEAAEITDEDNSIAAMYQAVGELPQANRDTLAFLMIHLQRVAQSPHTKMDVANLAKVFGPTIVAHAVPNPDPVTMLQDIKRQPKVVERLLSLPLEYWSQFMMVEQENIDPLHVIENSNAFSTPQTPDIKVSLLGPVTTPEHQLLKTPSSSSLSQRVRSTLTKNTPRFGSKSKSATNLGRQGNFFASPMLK

[5] = biological target: T4, High affinity choline transporter 1 (Homo sapiens, UniProt Q9GZV3); assay: CHT inhibitors, dose response, cell-based, 5-point CRC, membrane potential dye (AID 504840); type: functional
T4 sequence (Q9GZV3 whole entry): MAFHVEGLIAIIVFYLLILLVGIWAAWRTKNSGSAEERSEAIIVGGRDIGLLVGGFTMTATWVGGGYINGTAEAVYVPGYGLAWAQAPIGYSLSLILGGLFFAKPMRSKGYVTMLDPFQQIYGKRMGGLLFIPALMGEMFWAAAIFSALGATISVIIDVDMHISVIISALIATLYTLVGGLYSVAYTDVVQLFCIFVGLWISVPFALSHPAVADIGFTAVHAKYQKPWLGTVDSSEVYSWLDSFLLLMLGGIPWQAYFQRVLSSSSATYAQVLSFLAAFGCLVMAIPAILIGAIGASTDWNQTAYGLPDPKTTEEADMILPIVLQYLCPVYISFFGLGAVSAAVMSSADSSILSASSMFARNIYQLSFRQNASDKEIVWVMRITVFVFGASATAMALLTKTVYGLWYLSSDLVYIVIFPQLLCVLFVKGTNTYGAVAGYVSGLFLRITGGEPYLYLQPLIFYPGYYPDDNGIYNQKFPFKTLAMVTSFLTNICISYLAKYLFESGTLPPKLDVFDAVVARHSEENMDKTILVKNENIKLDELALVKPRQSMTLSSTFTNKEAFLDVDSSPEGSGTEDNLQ

SMILES: COc1ccc(NC(=O)COC(=O)c2c(NC(C)=O)sc(C)c2C)cc1
EC50 (Melanocortin receptor 4): > 89.3 µM (inactive)

SMILES: CCCN(CCC)CCN=C(S)Nc1ccc2nc3n(c(=O)c2c1)CCCCC3
EC50 [2]: 0.299 µM (active)

SMILES: CC(C)C(=O)Nc1ccc(C(=O)Nc2nnc(C(C)(C)C)s2)cc1
EC50 [3]: 0.237 µM (active)

SMILES: COc1ccc(-c2oc3ccc(-c4ccc5c(c4)OCO5)cc3c2C#CC2(O)CCCCC2)cc1
EC50 (Melanocortin receptor 4): > 89.2 µM (inactive)

SMILES: COc1cc(/C=C2\C(=O)N(c3cccc(C(=O)O)c3)N=C2C)ccc1OCc1ccccc1
IC50 [4]: 43.9 µM (active) | IC50 (Genome polyprotein): 7.99 µM (active)

SMILES: CCOc1ccc(N2C(=O)C(Cl)=C(N3CCOCC3)C2=O)cc1
IC50 (Genome polyprotein): 29.4 µM (active)

SMILES: CC1CCCCC1NC(=O)c1ccc(S(=O)(=O)N2CCCC2)cc1 (stereo not given)
IC50 [5]: 13.2 µM (active)

Results, then the compound that gave them:

IC50 [1]: 35.2 µM (not active)
SMILES: COc1ccccc1C(=O)Nc1ccc(C(=O)c2ccccc2)cc1

EC50 [2]: 1.68 µM (active)
SMILES: C=CCn1c(CCNC(=O)c2ccco2)nc2ccccc21

EC50 (Melanocortin receptor 4): > 89.2 µM (inactive) | AC50 (Cytochrome P450 2C9): 20 µM (inconclusive) | AC50 (Cytochrome P450 3A4): 12.6 µM (inconclusive)
SMILES: Nc1c(-c2cccs2)cnn1-c1nc(-c2ccc(Cl)cc2Cl)cs1

IC50 (Genome polyprotein): 56.5 µM (active)
SMILES: COc1ccccc1NS(=O)(=O)c1ccc(N/N=C/c2ccccc2OCC(=O)O)c([N+](=O)[O-])c1

EC50 [3]: 7.5 µM (active)
SMILES: FC(F)Oc1ccccc1N=C(S)Nc1cccc(Cl)c1Cl

EC50 [3]: 4.73 µM (active)
SMILES: c1csc(-c2nc(NCC3CCCO3)c3ccccc3n2)c1 (stereo not given)

EC50 (Melanocortin receptor 4): > 89.2 µM (inactive)
SMILES: CC(=O)Nc1cc(-c2ccc(C(=O)N3CCOCC3)cc2)cn2c(-c3ccccc3)cnc12

EC50 [3]: 0.188 µM (active)
SMILES: CC1CCCN1CC#CC(O)(c1ccccc1)c1ccccc1 (stereo not given)

IC50 [1]: 12.1 µM (not active)
SMILES: Cc1ccc(N2C(=O)CC(c3c[nH]c4ccccc34)C2=O)cc1 (stereo not given)

IC50 [1]: 0.535 µM (not active)
SMILES: CC1Cc2ccccc2N1C(=S)NC(=O)c1ccco1 (stereo not given)
